We go through 15 compounds from ChEMBL document CHEMBL3769400, “Synthesis of minoxidil conjugates and their evaluation as HL-60 differentiation agents” (Bioorg Med Chem Lett, 2016).

Calls of active or inactive are those of the source. No cut-off for these calls is given here.

The test system of series [1] is HL-60. Briefly: Induction of cell differentiation in human HL60 cells assessed as increase in differentiation index at 10 uM measured after 5 days by NBT/MTT assay. In kind it is functional, cell-based. (In general: Tetrazolium assays rely on reduction of a dye to a coloured formazan, in cell work by metabolically active cells.)
Series [2] can be described thus: Induction of cell differentiation in human HL60 cells by NBT/MTT assay. The conditions noted are these: HL-60. In kind it is functional, cell-based.
A further series concerns PBMC. The experiment in a line: Cytotoxicity against human PBMC cells assessed as cell viability by MTT assay. In kind it is cell-based.
The subject of series [3] is HL-60. The experiment in a line: Induction of cell differentiation in human HL60 cells assessed as increase in differentiation index at 10 uM measured after 3 days by NBT/MTT assay. Type of series: functional, cell-based.
The test system of series [4] is HL-60. The experiment in a line: Induction of cell differentiation in human HL60 at 10 uM after 3 days by leishmans staining based microscopic analysis. In kind it is functional.
Series [5] deals with HL-60. The experiment in a line: Induction of cell differentiation in human HL60 cells assessed as condensation of nuclear chromatin after 3 days at 10 uM by leishmans staining based microscopic analysis. Type of series: functional.
For series [6], the system named is HL-60. Briefly: Induction of cell differentiation in human HL60 assessed as reduction in cell number after 3 days at 10 uM by leishmans staining based microscopic analysis. Type of series: functional.
The test system of series [7] is HL-60. The experiment in a line: Induction of cell differentiation in human HL60 cells assessed as irregularity of nuclear and cytoplasmic shape after 3 days at 10 uM by leishmans staining based microscopic analysis. In kind it is functional.
Series [8] concerns HL-60. The experiment in a line: Induction of cell differentiation in human HL60 cells at 0.1 to 10 uM measured after 3 days by NBT/MTT assay. In kind it is functional, cell-based.
The subject of series [9] is HL-60. The experiment in a line: Induction of cell differentiation in human HL60 cells at 0.1 to 10 uM measured after 5 days by NBT/MTT assay. Type of series: functional, cell-based.
The subject of series [10] is HL-60. Briefly: Induction of cell differentiation in human HL60 cells at 10 uM co-administered with DAF measured after 3 days by NBT/MTT assay. In kind it is functional, cell-based.
In series [11] the test system is HL-60. The experiment in a line: Induction of cell differentiation in human HL60 cells at 10 uM co-administered with MDA measured after 3 days by NBT/MTT assay. Type of series: functional, cell-based.

As a reminder, the IC50 is the midpoint of a concentration-inhibition curve. Read a low IC50 as inhibition by little substance. Take `Nc1nc(N2CCCCC2)cc(NC(=O)NC(c2ccccc2)c2ccccc2)[n+]1[O-]`: the result in the series on HL-60 [1] and in the series with HL-60 [3] was Active. In series [2], this compound yielded a half-inhibitory concentration (IC50) of 3.05 µM. For the same compound, in the series with PBMC, the Activity entry is “Toxic”.

For the compound `COc1ccc(C(NC(=O)Nc2cc(N3CCCCC3)nc(N)[n+]2[O-])c2ccc(OC)cc2)cc1`, in [2], the 50% inhibitory concentration (IC50) was > 10 µM.

Consider `N#CCCNC(=O)Nc1cc(N2CCCCC2)nc(N)[n+]1[O-]`, for which the half-inhibitory concentration (IC50) in [2] is > 10 µM.

Take `CCCCCCCCCCCCCC(=O)O[C@@H]1[C@@H](C)[C@@]2(O)[C@@H](C=C(CO)C[C@]3(O)C(=O)C(C)=C[C@@H]23)[C@@H]2C(C)(C)[C@]12OC(C)=O`: the result in the series on HL-60 [4] was inactive.

With `Nc1ccc2c(c1)Cc1cc(NC(=O)Nc3cc(N4CCCCC4)nc(N)[n+]3[O-])ccc1-2`, the result in the series with HL-60 [5], with HL-60 [6], with HL-60 [1], in the series on HL-60 [3] and with HL-60 [7] was Active. This compound also showed a half-inhibitory concentration (IC50) in [2] of 3.04 µM. For the same compound, the Activity result with PBMC is on record as “Toxic”.

On to `CC1=C(/C=C/C(C)=C/C=C/C(C)=C/C(=O)O)C(C)(C)CCC1`, for which the outcome in the series with HL-60 [8] and in the series with HL-60 [9] was Active.

As for `Nc1nc(N2CCCCC2)cc(NC(=O)NCc2ccccc2)[n+]1[O-]`, in series [2], the 50% inhibitory concentration (IC50) is > 10 µM.

For the compound `Nc1ccc(Cc2ccc(N)cc2)cc1`, the result in the series on HL-60 [4] and in the series on HL-60 [3] was inactive.

Take `NCCCCCCNC(=O)Nc1cc(N2CCCCC2)nc(N)[n+]1[O-].O=C(O)C(F)(F)F`: the result in the series on HL-60 [5], with HL-60 [8], in the series with HL-60 [6] and with HL-60 [7] was Active. In addition, in the series with HL-60 [9], the outcome was inactive. In addition, inhibition in series [2] was half-maximal at 3.3 µM (IC50). Moreover, the Activity entry in the series on PBMC is recorded as “Toxic”.

For `Nc1cc(N2CCCCC2)nc(N)[n+]1[O-]` [MINOXIDIL], the result in the series with HL-60 [10], in the series on HL-60 [4] and in the series on HL-60 [11] was inactive. Also, the IC50 in series [2] was > 10 µM.

Turning to `CCCCNC(=O)Nc1cc(N2CCCCC2)nc(N)[n+]1[O-]`, the IC50 in series [2] was > 10 µM.

As for `Nc1ccc2c(c1)Cc1cc(N)ccc1-2`, the result with HL-60 [3] was inactive.

Turning to `NCCCNCCCCNCCCNC(=O)Nc1cc(N2CCCCC2)nc(N)[n+]1[O-].O=C(O)C(F)(F)F.O=C(O)C(F)(F)F.O=C(O)C(F)(F)F`, the result in the series on HL-60 [1] and in the series with HL-60 [3] was Active. In addition, in series [2], the midpoint of inhibition, the IC50, lay at 3.02 µM. In addition, the Activity entry in the series with PBMC is listed as “Toxic”.

As to `NCCCCNC(=O)Nc1cc(N2CCCCC2)nc(N)[n+]1[O-]`, the 50% inhibitory concentration (IC50) in series [2] is > 10 µM.

In the case of `Nc1ccc(Cc2ccc(NC(=O)Nc3cc(N4CCCCC4)nc(N)[n+]3[O-])cc2)cc1`, the result in the series with HL-60 [5], with HL-60 [6], with HL-60 [1], in the series on HL-60 [3] and in the series with HL-60 [7] was Active. This compound came in with a half-inhibitory concentration (IC50) in [2] of 3.02 µM. Moreover, in the series with PBMC, the Activity entry is “Toxic”.
